Source: patent publication US10512271B2, “Method for preventing or treating microbial growth on a manufactured product” (Stellenbosch University, priority 2014, dated 2019)
Square brackets hold non-standard residues; d marks the D form. Peptide text beside a SMILES is read from it. ξ: configuration not given here. Orn = NCCC[C@H](N)C(=O)O; ξP = O=C(O)C1CCCN1

Legend:
red blood cells = assay: Haemolytic assay on treated filter disks; format: cell-based; details: peptide in solution
Protocol: Fresh blood from anonymous donors (obtained from the Western Cape Blood transfusion Service, South Africa) was transferred to a sterile Falcon® tube, filled with sterile phosphate buffered saline (PBS: 4.0% (w/v) NaCl, 0.1% (w/v) KC, 0.72% (w/v) Na2HPO4, 0.1% (w/v) KH2PO4, pH 7.2, 5× concentrated stock solution) and centrifuged at 1200×g for 3 minutes. The supernatant was removed and the process repeated. The supernatant was removed once again and remaining blood cells were used for the assays. A clear 96-well microplate was used for this assay. Three disks of each of the matrixes (treated and untreated) were placed into the wells and 4 wells received 10 μL of gramicidin S as positive haemolytic control (1.0 mg/mL). Blood (100 μL at 2% hematocrit) was pipetted into each of the wells, after which the plates were sealed and incubated at 37° C. for 2 hours. […] The absorbance was measured at 595 nm. Percentage haemolysis was calculated by adapting an equation used for dose response assays (Rautenbach, Gerstner, Vlok, Kulenkamff and Westerhoff, 2005, Anal. Biochem. 350:81-90):
A standard curve of tyrocidine doubling dilution (dose response), starting at 20 μg/mL, was used to determine the amount of Tres leading to lysis. Lysis was determined from the linear part of the dose-response curve using the equation: (% haemolysis−2.38)/5.74=[Trc] μg/mL.

[1] = Wettability of treated filters (water drop size and time to absorption); format: physicochemical
Protocol: The wettability of untreated and GS- and Trc-treated filters were determined to ascertain the effect the peptides have on the hydrophobicity of the filters. Water containing blue food colouring (50 μL) was pipetted onto untreated and treated filters and the filters were monitored for the drop size and time to complete absorption.
The wettability, an indicator of hydrophilic/hydrophobic character, could possibly be altered by the adsorption of peptide, and this change in character would be an indication of the orientation in which in the peptide adsorbed to the various filters. The wettability of untreated and treated filters was determined (Table 3) and the untreated filters were rated in terms of hydrophobicity based on the time it took for a water droplet to completely absorb into the filter. […] Trc treatment made CA much more hydrophilic, while GS also lead to an increase in hydrophilicity, indicating the exposure of the polar amino acids to the surface. Trc made the HAWP filters more hydrophobic, whereas the gramicidin S made the filter more hydrophilic.

[2] = test system: Micrococcus luteus NCTC 8340; assay: Antibacterial CFU growth assay, high nutrient environment; format: cell-based
Protocol: Micrococcus luteus NCTC 8340 was cultured from a freezer stock on Luria Bertani plates (LB: 1% (w/v) NaCl (Merck), 1% (w/v) tryptone (Merck), 0.5% (w/v) yeast extract (Merck), 1.5% (w/v) agar (BioLab) in analytical grade water) and incubated at 37° C. for a period of 48 hours. A colony inoculate in 20 mL of sterile LB broth was incubated at 37° C. until an A620=0.6 was reached. Peptide-treated matrix and a control untreated matrix were transferred to a LB agar plate (high nutrient environment). The M. luteus culture was diluted to A620 of 0.2, further diluted (2000-10000 fold) and transferred to both treated and untreated filters on the LB plate. Plates were incubated for 48 hours at 37° C., after which the matrixes were inspected for the number of colony forming units (CFU).

M. luteus = assay: Cell viability (vitality) assay, low nutrient environment, high cell count; format: cell-based, Micrococcus luteus
Protocol: Treated and untreated matrixes (filters, membrane and films) were punched into 5 mm disks and triplicate disks were transferred to black […] microplates. A mid-log phase M. luteus culture was diluted with LB media to A620 of 0.20 (1.3×10^7 CFU/mL). Each well received […] of the diluted culture ([…]) on top of the 5 mm disk. The plate was incubated at 37° C. for one hour after which 90 μL phosphate-buffered saline (PBS) and 10 μL CellTiter-Blue® Reagent was added to each well. The plate was again incubated for 2 hours at 37° C. After the […] incubation in the low nutrient environment, the fluorescence was determined at an excitation wavelength of 530 nm and emission wavelength of 590 nm. The fluorescence reading was taken with a Varioskan™ Multimode reader from Thermo Scientific™ controlled by Skanit Software 2.4.1 from Thermo Electron. Each plate was shaken for 5 seconds before measurements were taken at 25° C.
Cell viability was calculated using the equation: […]
Different filters, surfaces and nanofibers, treated with Trc extract or GS, were assessed for the more direct short-term killing of M. luteus (sterilisation) using a low nutrient environment, high cell count and the Alamar Blue vitality assay to assess bacterial metabolism. […] This could be due to the limited spreading of the 5 μL culture on the filter, limiting the contact of the bacteria with the rest of the Trc-coated filter, and thus this assay could have underestimated the overall filter activity.

Gram-negative organisms = assay: Activity of treated CL filters against Gram-negative organisms; format: cell-based
[3] = Peptide adsorbed to filters, change in absorbance (A230) of incubation solution
[4] = Polycarbonate (PC, 0.45 μm pores)
[5] = Polyvinylidene difluoride (GVLP, 0.22 μm pores)
[6] = Polyvinylidene difluoride (HVLP, 0.45 μm pores)

Compound: CC(C)C[C@@H]1NC(=O)[C@H](CCCN)NC(=O)[C@H](C(C)C)NC(=O)C2CCCN2C(=O)[C@@H](Cc2ccccc2)NC(=O)[C@H](CC(C)C)NC(=O)[C@H](CCCN)NC(=O)[C@H](C(C)C)NC(=O)C2CCCN2C(=O)[C@@H](Cc2ccccc2)NC1=O (some centres unmarked) [GS, Cyclo-(VOLfPVOLfP)] (cyclo(L[dF][ξP]V[Orn]L[dF][ξP]V[Orn]))
- concentration at which lysis of red blood cells starts (red blood cells): > 10000 ng/mL
- Drop Diameter ([1]; Cellulose (CL, No 1)): >1 cm
- Time until absorbed ([1]; Cellulose (CL, No 1)): <0.167 min
- induced change in hydrophobicity ([1]; Cellulose (CL, No 1)): no change
- Drop Diameter ([1]; Cellulose Acetate (CA)): 0.85 cm
- Time until absorbed ([1]; Cellulose Acetate (CA)): 5.01 min
- induced change in hydrophobicity ([1]; Cellulose Acetate (CA)): decrease
- Drop Diameter ([1]; GSWP, 0.22 μm pores): 0.81 cm
- Time until absorbed ([1]; GSWP, 0.22 μm pores): 3.55 min
- induced change in hydrophobicity ([1]; GSWP, 0.22 μm pores): increase
- Drop Diameter ([1]; HAWP, 0.45 μm pores): 0.96 cm
- induced change in hydrophobicity ([1]; HAWP, 0.45 μm pores): slight
- Time until absorbed ([1]; HAWP, 0.45 μm pores, 50 μL water drop): 2.20 min
- Drop Diameter ([1]; High density cellulose (HDC)): 0.94 cm
- Time until absorbed ([1]; High density cellulose (HDC)): >30 min
- induced change in hydrophobicity ([1]; High density cellulose (HDC)): slight
- Drop Diameter [1, 4]: 0.73 cm
- Time until absorbed [1, 4]: >30 min
- induced change in hydrophobicity [1, 4]: no change
- Drop Diameter [1, 5]: 1.00 cm
- Time until absorbed [1, 5]: 17.25 min
- induced change in hydrophobicity [1, 5]: increase
- Drop Diameter [1, 6]: 0.72 cm
- Time until absorbed [1, 6]: 9.20 min
- induced change in hydrophobicity [1, 6]: increase
- protection of treated filters against overt colonisation by M. luteus ([2]; 48 hour growth assay, low cell count, high nutrient environment, summary of Table 4): only protected CL, HDC and HVLP against overt colonisation
- M. luteus, detected CFU/cm^2 after 48 h in nutrient rich environment ([2]; Cellulose (CL)): 0 CFU/cm^2
- M. luteus, detected CFU/cm^2 after 48 h in nutrient rich environment ([2]; Cellulose Acetate (CA)): 3 ± 1 CFU/cm^2
- M. luteus, detected CFU/cm^2 after 48 h in nutrient rich environment ([2]; High density cellulose (HDC)): 0 CFU/cm^2
- M. luteus, detected CFU/cm^2 after 48 h in nutrient rich environment ([2]; Mixed nitrocellulose/cellulose acetate esters (GSWP 0.22 μm)): 3 ± 1 CFU/cm^2
- M. luteus, detected CFU/cm^2 after 48 h in nutrient rich environment ([2]; Mixed nitrocellulose/cellulose acetate esters (HAWP, 0.45 μm)): 4 ± 1 CFU/cm^2
- M. luteus, detected CFU/cm^2 after 48 h in nutrient rich environment ([2]; Polycarbonate (PC, 0.45 um)): 4 ± 1 CFU/cm^2
- M. luteus, detected CFU/cm^2 after 48 h in nutrient rich environment ([2]; Polyvinylidene difluoride (GVHP, 0.22 μm)): 3 ± 1 CFU/cm^2
- M. luteus, detected CFU/cm^2 after 48 h in nutrient rich environment ([2]; Polyvinylidene difluoride (HVLP, 0.45 μm)): 0 CFU/cm^2
- short-term killing of M. luteus (sterilisation) (M. luteus; HDC and CL filters, FIG. 3A): Good protection
- short-term killing of M. luteus (sterilisation) (M. luteus; HVLP filter, FIG. 3A): good protection
- short-term killing of M. luteus (sterilisation) (M. luteus; all the other filters except PC, compared with growth assay): improved activity
- overt activity against Gram-negative organisms (Gram-negative organisms): not demonstrated
- peptide adsorbed, Absorbance (A230) ([3]; GVHP (0.22 μm) filter): 5.3±1.1 μg/cm^2
- peptide adsorbed, Absorbance (A230) ([3]; HVLP (0.45 μm) filter): 2.8±0.6 μg/cm^2
- peptide adsorbed, Absorbance (A230) ([3]; Polycarbonate filter): 1.2±2.2 μg/cm^2
